#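 Growth conditions: 96-well plates. Treatment: test compound, 48 hours, 5 concentrations. Analysis: linear interpolation between bracketing concentrations; unreached endpoints set to highest concentration. GI50 = concentration required for 50% inhibition of growth. The concentration for full growth arrest is given as TGI.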
# What was measured:
# Assay in all cases: growth of human tumour cells (NCI), 48 h
# [1] = tested on: SF-268 CNS
# [2] = tested on: ACHN renal
# [3] = tested on: 786-0 renal
# [4] = tested on: SK-MEL-5 melanoma
# [5] = tested on: DU-145 prostate
# [6] = tested on: SNB-19 CNS
# [7] = tested on: CAKI-1 renal
# [8] = tested on: HL-60(TB) leukemia
# [9] = tested on: IGROV1 ovarian
# [10] = tested on: MALME-3M melanoma
# [11] = tested on: OVCAR-3 ovarian
# [12] = tested on: SK-MEL-2 melanoma
# [13] = tested on: RXF 393 renal
# [14] = tested on: HCT-15 colon
# [15] = tested on: KM12 colon
# [16] = tested on: UACC-62 melanoma
# [17] = tested on: MDA-N
# [18] = tested on: MOLT-4 leukemia
# [19] = tested on: SW-620 colon
# [20] = tested on: NCI-H460 lung
# [21] = tested on: A498 renal
# [22] = tested on: OVCAR-8 ovarian
# [23] = tested on: NCI/ADR-RES ovarian
# [24] = tested on: MCF7 breast
# [25] = tested on: SN12C renal
# [26] = tested on: NCI-H23 lung
# [27] = tested on: SK-OV-3 ovarian
# [28] = tested on: TK-10 renal
# [29] = tested on: HCT-116 colon
# [30] = tested on: OVCAR-5 ovarian
# [31] = tested on: SF-539 CNS
# [32] = tested on: CCRF-CEM leukemia
# [33] = tested on: SK-MEL-28 melanoma
# [34] = tested on: SF-295 CNS
# [35] = tested on: NCI-H226 lung
# [36] = tested on: LOX IMVI melanoma
# [37] = tested on: T-47D breast
# [38] = tested on: MDA-MB-435
# [39] = tested on: UACC-257 melanoma
# [40] = tested on: HT29 colon
# [41] = tested on: A549 NSCLC
# [42] = tested on: MDA-MB-231 breast
# [43] = tested on: HOP-92 NSCLC
# [44] = tested on: M14 melanoma
# [45] = tested on: PC-3 prostate
# [46] = tested on: HOP-62 NSCLC
# [47] = tested on: OVCAR-4 ovarian
# [48] = tested on: EKVX NSCLC
# [49] = tested on: NCI-H522 lung
# [50] = tested on: HCC-2998 colon
# [51] = tested on: COLO 205 colon
# [52] = tested on: HS 578T breast
# [53] = tested on: UO-31 renal
# [54] = tested on: U251 CNS
# [55] = tested on: SR leukemia
# [56] = tested on: RPMI-8226 leukemia
# [57] = tested on: SNB-75 CNS
# [58] = tested on: K-562 leukemia
# [59] = tested on: BT-549 breast
compound,measurement,setting,value
CCOC(=O)c1ccc(N=C2Sc3nc4ccccc4n3C2=Nc2ccc(C(=O)OCC)cc2)cc1,TGI,[1],84.3 µM
same,TGI,[2],57.2 µM
same,TGI,[3],24.5 µM
same,TGI,[4],63.2 µM
same,TGI,[5],> 100 µM
same,TGI,[6],25.2 µM
same,TGI,[7],70.6 µM
same,TGI,[8],> 100 µM
same,TGI,[9],60.4 µM
same,TGI,[10],51.8 µM
same,TGI,[11],53.4 µM
same,TGI,[12],91.5 µM
same,TGI,[13],59.3 µM
same,TGI,[14],> 100 µM
same,TGI,[15],> 100 µM
same,TGI,[16],54.4 µM
same,TGI,[17],65 µM
same,TGI,[18],> 100 µM
same,TGI,[19],> 100 µM
same,TGI,[20],69.6 µM
same,TGI,[21],81.4 µM
same,TGI,[22],89.7 µM
same,TGI,[23],72.7 µM
same,TGI,[24],31.3 µM
same,TGI,[25],> 100 µM
same,TGI,[26],83.8 µM
same,TGI,[27],> 100 µM
same,TGI,[28],32.6 µM
same,TGI,[29],19.2 µM
same,TGI,[30],> 100 µM
same,TGI,[31],41.6 µM
same,TGI,[32],> 100 µM
same,TGI,[33],> 100 µM
same,TGI,[34],37.3 µM
same,TGI,[35],73.8 µM
same,TGI,[36],81.8 µM
same,TGI,[37],> 100 µM
same,TGI,[38],> 100 µM
same,TGI,[39],> 100 µM
same,TGI,[40],> 100 µM
same,TGI,[41],69.8 µM
same,TGI,[42],52.5 µM
same,TGI,[43],35.9 µM
same,TGI,[44],37.1 µM
same,TGI,[45],> 100 µM
same,TGI,[46],46.5 µM
same,TGI,[47],81.5 µM
same,TGI,[48],> 100 µM
same,TGI,[49],> 100 µM
same,TGI,[50],> 100 µM
same,TGI,[51],> 100 µM
same,TGI,[52],75.5 µM
COc1ccccc1CNCCCN1C(=O)c2ccc3c4c(ccc(c24)C1=O)C(=O)N(CCCNCCCCNCCCN)C3=O,GI50,[1],0.333 µM
same,TGI,[1],3.61 µM
same,GI50,[2],0.747 µM
same,TGI,[2],4.44 µM
same,GI50,[3],1.03 µM
same,TGI,[3],3.78 µM
same,GI50,[4],0.159 µM
same,TGI,[4],0.302 µM
same,GI50,[5],0.682 µM
same,TGI,[5],2.03 µM
same,GI50,[53],2.66 µM
same,TGI,[53],16.2 µM
same,GI50,[6],0.574 µM
same,TGI,[6],3.97 µM
same,GI50,[7],2.6 µM
same,TGI,[7],10.4 µM
same,GI50,[8],0.409 µM
same,TGI,[8],1.69 µM
same,GI50,[9],0.359 µM
same,TGI,[9],11.1 µM
same,GI50,[10],0.241 µM
same,TGI,[10],0.546 µM
same,GI50,[54],0.339 µM
same,TGI,[54],1.3 µM
same,GI50,[11],0.261 µM
same,TGI,[11],0.699 µM
same,GI50,[12],0.227 µM
same,TGI,[12],0.591 µM
same,GI50,[13],0.323 µM
same,TGI,[13],1.39 µM
same,GI50,[14],1.75 µM
same,TGI,[14],5.73 µM
same,GI50,[55],0.322 µM
same,TGI,[55],> 23.2 µM
same,GI50,[15],0.338 µM
same,TGI,[15],1.46 µM
same,GI50,[56],0.626 µM
same,TGI,[56],10.8 µM
same,GI50,[16],0.362 µM
same,TGI,[16],1.69 µM
same,GI50,[18],0.57 µM
same,TGI,[18],8.31 µM
same,GI50,[19],0.26 µM
same,TGI,[19],1.28 µM
same,GI50,[20],0.36 µM
same,TGI,[20],1.5 µM
same,GI50,[21],1.34 µM
same,TGI,[21],3.14 µM
same,GI50,[22],0.285 µM
same,TGI,[22],2.19 µM
same,GI50,[23],2.02 µM
same,TGI,[23],7.7 µM
same,GI50,[24],0.2 µM
same,TGI,[24],0.466 µM
same,GI50,[25],0.319 µM
same,TGI,[25],1.5 µM
same,GI50,[26],0.356 µM
same,TGI,[26],2.05 µM
same,GI50,[27],1.95 µM
same,TGI,[27],11.1 µM
same,GI50,[57],0.609 µM
same,TGI,[57],1.86 µM
same,GI50,[28],0.959 µM
same,TGI,[28],6.28 µM
same,GI50,[29],0.315 µM
same,TGI,[29],1.16 µM
same,GI50,[30],2.03 µM
same,TGI,[30],11 µM
same,GI50,[31],0.426 µM
same,TGI,[31],1.67 µM
same,GI50,[32],0.425 µM
same,TGI,[32],19.9 µM
same,GI50,[33],0.388 µM
same,TGI,[33],1.44 µM
same,GI50,[34],1.06 µM
same,TGI,[34],6.79 µM
same,GI50,[35],0.911 µM
same,TGI,[35],2.71 µM
same,GI50,[36],0.3 µM
same,TGI,[36],1.57 µM
same,GI50,[37],0.214 µM
same,TGI,[37],0.49 µM
same,GI50,[58],0.302 µM
same,TGI,[58],7.05 µM
same,GI50,[38],0.213 µM
same,TGI,[38],0.494 µM
same,GI50,[39],0.176 µM
same,TGI,[39],0.33 µM
same,GI50,[40],0.287 µM
same,TGI,[40],0.995 µM
same,GI50,[41],0.581 µM
same,TGI,[41],2.72 µM
same,GI50,[42],0.431 µM
same,TGI,[42],10.5 µM
same,GI50,[43],0.67 µM
same,TGI,[43],5.23 µM
same,GI50,[44],0.645 µM
same,TGI,[44],2.08 µM
same,GI50,[45],0.561 µM
same,TGI,[45],5.23 µM
same,GI50,[46],0.658 µM
same,TGI,[46],2.25 µM
same,GI50,[47],0.167 µM
same,TGI,[47],0.319 µM
same,GI50,[48],1.39 µM
same,TGI,[48],3.22 µM
same,GI50,[49],0.176 µM
same,TGI,[49],0.362 µM
same,GI50,[50],0.295 µM
same,TGI,[50],1.06 µM
same,GI50,[51],0.168 µM
same,TGI,[51],0.317 µM
same,GI50,[52],1.34 µM
same,TGI,[52],5.49 µM
same,GI50,[59],1.7 µM
same,TGI,[59],3.57 µM
CCC1=CC(OCc2ccccc2)C(CCN(Cc2ccccc2)C(=O)OCc2ccccc2)C1 (configuration not stated),TGI,[1],32.5 µM
same,TGI,[2],30.9 µM
same,TGI,[3],40.1 µM
same,TGI,[4],37.8 µM
same,TGI,[5],30.2 µM
same,TGI,[53],28.3 µM
same,TGI,[6],30.9 µM
same,TGI,[7],28.3 µM
same,TGI,[9],29.8 µM
same,TGI,[10],30.1 µM
same,TGI,[54],62 µM
same,TGI,[11],28.4 µM
same,TGI,[12],42.1 µM
same,TGI,[13],17.7 µM
same,TGI,[14],29.1 µM
same,TGI,[55],56.4 µM
same,TGI,[15],29.7 µM
same,TGI,[56],86.2 µM
same,TGI,[16],24.8 µM
same,TGI,[17],54.1 µM
same,TGI,[18],46.5 µM
same,TGI,[19],37 µM
same,TGI,[20],39.7 µM
same,TGI,[21],48.4 µM
same,TGI,[22],32.8 µM
same,TGI,[23],35.3 µM
same,TGI,[24],35 µM
same,TGI,[26],33.4 µM
same,TGI,[27],80.6 µM
same,TGI,[57],22.6 µM
same,TGI,[28],30.9 µM
same,TGI,[30],36.9 µM
same,TGI,[31],49.1 µM
same,TGI,[33],37.8 µM
same,TGI,[34],35.3 µM
same,TGI,[35],36.5 µM
same,TGI,[36],32.7 µM
same,TGI,[37],22.8 µM
same,TGI,[58],> 100 µM
same,TGI,[38],32.7 µM
same,TGI,[39],30.3 µM
same,TGI,[40],37.6 µM
same,TGI,[41],32.1 µM
same,TGI,[42],62.6 µM
same,TGI,[43],27 µM
same,TGI,[44],27.8 µM
same,TGI,[45],42.9 µM
same,TGI,[46],37.1 µM
same,TGI,[47],27.4 µM
same,TGI,[48],32.8 µM
same,TGI,[49],25.9 µM
same,TGI,[50],35.8 µM
same,TGI,[51],45.6 µM
same,TGI,[52],32.6 µM

# Reference: PubChem BioAssay (NCI)
